Measurements: patent publication US9073830B2 (Hyundai Pharm Co., Ltd., priority 2011, dated 2015)

How the values were obtained:
[1] = molecular target: T1, mouse 11β-HSD1 (Mus musculus, UniProt P50172); test: Enzyme activity analysis on mouse 11β-HSD1 (HTRF cortisol, liver microsomes); type: biochemical; conditions: second value of cell
T1 construct: 100 ug/ml human/mouse liver microsomes; from tissue; host or cells: mouse liver microsomes
Method in brief: (§1)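 Cortisol generated by mouse or human liver microsome 11β-HSD1 during 2 h at 37° C., measured by HTRF competition (cryptate anti-cortisol antibody, d2-cortisol, 2 h room temperature) against a cortisol standard curve. IC50 from percent inhibition versus no-compound control.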

[2] = molecular target: T2, glucocorticoid receptor (Homo sapiens, UniProt P04150); test: Competitive binding of glucocorticoid receptor (LanthaScreen TR-FRET); conditions: final concentration 10 uM
T2 construct: 4× GR-LBD up to 4 nM, and 4× Tb anti-GST Antibody up to 8 nM; purchased Invitrogen PV6040
T2 sequence (P04150 524-758 limits assumed): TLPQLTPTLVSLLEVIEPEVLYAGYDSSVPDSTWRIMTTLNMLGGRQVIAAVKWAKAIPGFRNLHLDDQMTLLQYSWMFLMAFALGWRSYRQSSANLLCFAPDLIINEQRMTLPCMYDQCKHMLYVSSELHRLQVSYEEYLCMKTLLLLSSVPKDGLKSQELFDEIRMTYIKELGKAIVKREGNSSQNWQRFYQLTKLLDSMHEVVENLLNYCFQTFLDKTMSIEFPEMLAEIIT
Protocol: In order to confirm the selective inhibitory ability of 11β-HSD1 inhibitor, competitive binding between 11β-HSD1 inhibitor and glucocorticoid ligand was tested by using LanthaScreen TR-FRET Glucocorticoid Receptor Competitive Binding Assay (Invitrogen, PV6040). The test material was dissolved in DMSO (Sigma, 276855) up to a 100× concentration of its final concentration (10 uM), and then Complete Nuclear Receptor Buffer F (1× stabilizing peptide, 5 mM DTT, Nuclear Receptor Buffer F) was used to dilute the test material up to a concentration of 2×, 4× Fluormone™ GS1 Green up to 20 nM, 4× GR-LBD up to 4 nM, and 4× Tb anti-GST Antibody up to 8 nM.
In order to obtain 60 μl of a final product through a reaction, on a 96-well plate, 2× test material 30 μl, 4× Fluormone™ GS1 Green 15 μl, and 4× GR-LBD/Tb anti-GST Antibody 15 μl were mixed, and reacted for 1 hour. In a positive control group, instead of the test material, Dexamethasone (Sigma, D1756), known as a ligand for glucocorticoid receptor, was used, and in a maximum active control group, DMSO was used, instead of the test material. In a negative control group, instead of the test material, DMSO was used, instead of Fluormone™ GS1 Green, Complete Nuclear Receptor Buffer F was used. On a 384-well white plate, 20 μl each was plated. By using Time-Resolved program in Flexstation3, a fluorescence value was read after excitation ([…]), emission (515 nM/486 nM), Delay time (100 μs), and Integration time (1500 μs) were programmed. By using the obtained value, a value of 515 nM/486 nM was calculated, from which the value in the negative control group was subtracted. The degree of binding of the test material to glucocorticoid receptor of was calculated by the active value of the test material with respect to the active value (100%) in the maximum active control group.

[3] = molecular target: T3, human 11β-HSD1 (Homo sapiens, UniProt P28845); test: Enzyme activity analysis on human 11β-HSD1 (HTRF cortisol, liver microsomes); type: biochemical; conditions: first value of cell
T3 construct: 100 ug/ml human/mouse liver microsomes; from tissue; host or cells: human liver microsomes
T3 sequence (P28845 whole entry): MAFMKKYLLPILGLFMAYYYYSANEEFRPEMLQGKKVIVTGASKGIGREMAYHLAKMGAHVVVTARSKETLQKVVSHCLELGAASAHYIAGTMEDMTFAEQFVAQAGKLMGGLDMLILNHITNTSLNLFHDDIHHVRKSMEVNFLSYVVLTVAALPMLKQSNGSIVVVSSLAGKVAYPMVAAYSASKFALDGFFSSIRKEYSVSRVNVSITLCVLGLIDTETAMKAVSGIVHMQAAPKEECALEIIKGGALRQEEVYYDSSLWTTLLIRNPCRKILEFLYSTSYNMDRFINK
Method in brief: as §1

[4] = molecular target: T4, human 11β-HSD2 (Homo sapiens, UniProt P80365); test: 11b-HSD2 inhibition test in transfected CHO cells; type: cell-based; conditions: at a concentration of 10 uM; CHO cells expressing human 11β-HSD2; read-out: 11b-HSD2 inhibitory effect
T4 construct: host or cells: CHO cells
T4 sequence (P80365 1-405): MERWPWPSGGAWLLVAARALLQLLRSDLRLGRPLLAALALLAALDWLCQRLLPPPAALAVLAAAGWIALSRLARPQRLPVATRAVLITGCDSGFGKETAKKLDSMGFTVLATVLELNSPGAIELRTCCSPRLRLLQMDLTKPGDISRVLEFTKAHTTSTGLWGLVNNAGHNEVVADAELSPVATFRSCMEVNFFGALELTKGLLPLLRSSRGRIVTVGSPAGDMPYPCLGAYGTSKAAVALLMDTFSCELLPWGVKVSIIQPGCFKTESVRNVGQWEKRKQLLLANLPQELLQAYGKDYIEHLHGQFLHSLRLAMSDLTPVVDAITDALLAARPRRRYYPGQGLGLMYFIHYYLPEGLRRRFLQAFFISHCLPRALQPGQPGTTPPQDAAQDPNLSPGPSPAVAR
Protocol: CHO cells were plated on a 96 well plate with RPMI (Wellgene) medium (phenol red free) containing 100 μl of 10% FBS, 100 ug/ml of penicillin and 100 ug/ml of streptomycin (2×10^4 cells/well). CHO cells were transfected with plasmid (Origene, SC122552) (pCMV6-XL5 vector) expressing human 11β-HSD2 by using FuGENE6 reagent (Promega, E2311). 24 hours after transfection, the transfected cells were added with 50 nM of cortisol (Sigma) in the presence or absence of the compound at various concentrations. On the following day (24 hours later), the supernatant liquid was obtained, and through HTRF (Cisbio, 62CO2PEB) analysis, a competitive amount of cortisol was measured.

T1 sequence (P50172 whole entry): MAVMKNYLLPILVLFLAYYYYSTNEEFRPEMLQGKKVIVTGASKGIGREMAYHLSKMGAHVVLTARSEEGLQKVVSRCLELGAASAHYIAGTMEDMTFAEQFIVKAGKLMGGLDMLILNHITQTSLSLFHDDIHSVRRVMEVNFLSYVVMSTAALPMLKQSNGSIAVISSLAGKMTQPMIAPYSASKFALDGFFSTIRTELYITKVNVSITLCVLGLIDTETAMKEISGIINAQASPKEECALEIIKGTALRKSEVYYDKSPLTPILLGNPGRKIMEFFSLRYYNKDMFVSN

In the case of `CC(C)(NS(=O)(=O)c1ccccc1Br)C(=O)NC1C2CC3CC1CC(C(N)=O)(C3)C2` (stereo not drawn) [compound 84, N-4-(2-(2-bromophenylsulfonamido)-2-methylpropanamido)adamantane-1-carboxyamide], the IC50 [1] is reported as 0.008 µM, the “binding to glucocorticoid receptor” value [2] is reported as “did not bind to glucocorticoid receptor” and the IC50 [3] is reported as 0.011 µM.

For `CC(C)(NS(=O)(=O)c1cccc(Cl)c1Cl)C(=O)NC1C2CC3CC1CC(C(N)=O)(C3)C2` (stereo not drawn) [compound 87, N-4-(2-(2,3-dichlorophenylsulfonamido)-2-methylpropanamido)adamantane-1-carboxyamide], the IC50 [1] was 0.007 µM, the “binding to glucocorticoid receptor” value [2] was “did not bind to glucocorticoid receptor” and the IC50 [3] was 0.005 µM.

`CC(C)(NS(=O)(=O)c1ccccc1OC(F)(F)F)C(=O)NC1C2CC3CC1CC(C(N)=O)(C3)C2` (stereo not drawn) [compound 90, N-4-(2-(2-trifluoromethoxyphenylsulfonamido)-2-methylpropanamido)adamantane-1-carboxyamide] was tested, and the IC50 [1] was 0.03 µM, the “binding to glucocorticoid receptor” value [2] was “did not bind to glucocorticoid receptor” and the IC50 [3] was 0.017 µM.

For `Cc1ccc(S(=O)(=O)NC(C)(C)C(=O)NC2C3CC4CC2CC(C(N)=O)(C4)C3)cc1F` (stereo not drawn) [compound 92, N-4-(2-(3-fluoro-4-methylphenylsulfonamido)-2-methylpropanamido)adamantane-1-carboxyamide], the inhibition at 10 µM [4] was ≤ 40%, the IC50 [1] was 0.077 µM and the “binding to glucocorticoid receptor” value [2] was “did not bind to glucocorticoid receptor”. For the same compound, the IC50 [3] was 0.032 µM.

In the case of `Cc1c(Cl)cccc1S(=O)(=O)NC(C)(C)C(=O)NC1C2CC3CC1CC(C(N)=O)(C3)C2` (stereo not drawn) [compound 97, N-4-(2-(2-methyl-3-chlorophenylsulfonamido)-2-methylpropanamido)adamantane-1-carboxyamide], the IC50 [1] is reported as 0.01 µM, the “binding to glucocorticoid receptor” value [2] is reported as “did not bind to glucocorticoid receptor” and the IC50 [3] is reported as 0.005 µM.

With `Cc1ccccc1S(=O)(=O)NC(C)(C)C(=O)NC1C2CC3CC1CC(C(N)=O)(C3)C2` (stereo not drawn) [compound 104, N-4-(2-(2-methylphenylsulfonamido)-2-methylpropanamido)adamantane-1-carboxyamide] the IC50 [1] was 0.046 µM, the “binding to glucocorticoid receptor” value [2] was “did not bind to glucocorticoid receptor” and the IC50 [3] was 0.014 µM.

In the case of `CC(C)(NS(=O)(=O)c1cccc2cccnc12)C(=O)NC1C2CC3CC1CC(C(N)=O)(C3)C2` (stereo not drawn) [compound 105, N-4-(2-(quinoline-8-sulfonamido)-2-methylpropanamido)adamantane-1-carboxyamide], the inhibition at 10 µM [4] is reported as ≤ 40%, the IC50 [1] is reported as 0.006 µM and the IC50 [3] is reported as 0.023 µM.

`CC(C)(NS(=O)(=O)c1ccccc1[N+](=O)[O-])C(=O)NC1C2CC3CC1CC(C(N)=O)(C3)C2` (stereo not drawn) [compound 106, N-4-(2-(2-nitrophenylsulfonamido)-2-methylpropanamido)adamantane-1-carboxyamide] was tested, and the inhibition at 10 µM [4] was ≤ 40%, the IC50 [1] was 0.04 µM and the “binding to glucocorticoid receptor” value [2] was “did not bind to glucocorticoid receptor”. It also gave an IC50 [3] of 0.041 µM.

`CC(C)(NS(=O)(=O)c1ccccc1C(F)(F)F)C(=O)NC1C2CC3CC1CC(C(N)=O)(C3)C2` (stereo not drawn) [compound 108, N-4-(2-(2-trifluoromethylphenylsulfonamido)-2-methylpropanamido)adamantane-1-carboxyamide] was tested, and the inhibition at 10 µM [4] was ≤ 40%, the IC50 [1] was 0.029 µM and the “binding to glucocorticoid receptor” value [2] was “did not bind to glucocorticoid receptor”. The IC50 [3] was 0.011 µM.

In the case of `CC(C)(NS(=O)(=O)c1c(Cl)cccc1Cl)C(=O)NC1C2CC3CC1CC(C(N)=O)(C3)C2` (stereo not drawn) [compound 121], the inhibition at 10 µM [4] is reported as ≤ 40%, the IC50 [1] is reported as 0.004 µM and the IC50 [3] is reported as 0.009 µM.

`NC(=O)C12CC3CC(C1)C(NC(=O)C1(NS(=O)(=O)c4cccc5cccnc45)CCC1)C(C3)C2` (stereo not drawn) [compound 146, N-4-(1-(quinoline-8-sulfonamido)cyclobutanecarboxyamido)adamantane-1-carboxyamide] was tested, and the inhibition at 10 µM [4] was ≤ 40%, the IC50 [1] was 0.02 µM and the IC50 [3] was 0.029 µM.
